From ChEMBL document CHEMBL1201862, “PubChem BioAssay data set” (2004)
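Exposure lasted 48 hours, with cells grown in 96-well plates and compounds tested at five concentrations. GI50 marks 50% less growth.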 Calls of active or inactive are those of the source. Rule as the data show it: active = GI50 up to about 1.1 µM and inactive = higher.

What was measured:
Test in all cases: growth of human tumour cells (NCI), 48 h
[1] = test system: A498
[2] = test system: BT-549
[3] = test system: DU-145
[4] = test system: HCT-116
[5] = test system: HCT-15
[6] = test system: IGROV-1
[7] = test system: K562
[8] = test system: LOX IMVI
[9] = test system: MDA-N
[10] = test system: MOLT-4
[11] = test system: Malme-3M
[12] = test system: NCI-H226
[13] = test system: NCI-H23
[14] = test system: NCI-H460
[15] = test system: OVCAR-3
[16] = test system: OVCAR-5
[17] = test system: PC-3
[18] = test system: RXF 393
[19] = test system: SK-MEL-2
[20] = test system: U-251

Structure (SMILES) | GI50 [1] | GI50 [2] | GI50 [3] | GI50 [4] | GI50 [5] [µM] | GI50 [6] | GI50 [7] | GI50 [8] | GI50 [9] | GI50 [10] | GI50 [11] | GI50 [12] | GI50 [13] | GI50 [14] | GI50 [15] | GI50 [16] | GI50 [17] | GI50 [18] | GI50 [19] | GI50 [20]
C=CCn1c2c(c3ccccc3c1=O)C(=O)c1ccccc1-2 | > 100 µM (inactive) | > 100 µM (inactive) | > 89.3 µM (inactive) | > 26.2 µM (inactive) | > 100 | > 100 µM (inactive) | > 23 µM (inactive) | > 100 µM (inactive) | > 100 µM (inactive) | 3.4 µM (inactive) | > 100 µM (inactive) | > 100 µM (inactive) | > 100 µM (inactive) | 6.28 µM (inactive) | > 100 µM (inactive) | > 100 µM (inactive) | > 100 µM (inactive) | 15.9 µM (inactive) | > 100 µM (inactive) | 30.8 µM (inactive)
Brc1ccc2c(-c3nc(-c4c[nH]c5ccccc45)cs3)c[nH]c2c1 | 22.7 µM (inactive) | 34.8 µM (inactive) | 23.4 µM (inactive) | 23.8 µM (inactive) | 16.8 | 30.5 µM (inactive) | 13.1 µM (inactive) | 10.4 µM (inactive) | 41.9 µM (inactive) | 26.7 µM (inactive) | > 100 µM (inactive) | 39 µM (inactive) | 24.9 µM (inactive) | 11.8 µM (inactive) | 39.7 µM (inactive) | 31.9 µM (inactive) | 30.8 µM (inactive) | 17.6 µM (inactive) | > 61.2 µM (inactive) | 35.2 µM (inactive)
Cc1nnc(Sc2nc(C#N)c(C#N)nc2Sc2nnc(C)s2)s1 | 18.7 µM (inactive) | 5.61 µM (inactive) | 14.9 µM (inactive) | 10.3 µM (inactive) | 2.6 | 7.24 µM (inactive) | 3.48 µM (inactive) | 2.72 µM (inactive) | 12.2 µM (inactive) | 2.25 µM (inactive) | 0.139 µM (active) | 20.8 µM (inactive) | 17.5 µM (inactive) | 28.6 µM (inactive) | 6.32 µM (inactive) | 17.2 µM (inactive) | 14.8 µM (inactive) | 1.92 µM (inactive) | 18.4 µM (inactive) | 19.8 µM (inactive)
CCOC(=O)C(NC(=O)C(CCCCNP(=O)(OCC)OCC)NC(=O)C(C)NC(C)=O)C(C)C (stereo not given) | 80.7 µM (inactive) | > 100 µM (inactive) | > 100 µM (inactive) | > 100 µM (inactive) | > 100 | > 100 µM (inactive) | > 100 µM (inactive) | > 100 µM (inactive) | > 100 µM (inactive) | > 100 µM (inactive) | > 100 µM (inactive) | > 100 µM (inactive) | > 100 µM (inactive) | > 100 µM (inactive) | > 100 µM (inactive) | > 100 µM (inactive) | > 100 µM (inactive) | > 100 µM (inactive) | > 100 µM (inactive) | > 100 µM (inactive)
C/C(=N\NC(=S)N1CCN(c2ccccn2)CC1)c1cccc2cccnc12 | 12 µM (inactive) | 14.3 µM (inactive) | 3.56 µM (inactive) | 2.39 µM (inactive) | 3.68 | 5.79 µM (inactive) | 2.46 µM (inactive) | 3.59 µM (inactive) | 4.71 µM (inactive) | 3.21 µM (inactive) | 4.76 µM (inactive) | 5.77 µM (inactive) | 11.5 µM (inactive) | 3.51 µM (inactive) | 3.44 µM (inactive) | 4.9 µM (inactive) | 3.67 µM (inactive) | 3.33 µM (inactive) | 2.51 µM (inactive) | 4.12 µM (inactive)
[N-]=[N+]=NCC1OC(n2cnc3c(N)ncnc32)C2OC12 (stereo not given) | > 100 µM (inactive) | > 100 µM (inactive) | > 100 µM (inactive) | > 100 µM (inactive) | > 100 | > 100 µM (inactive) | > 100 µM (inactive) | > 100 µM (inactive) | > 100 µM (inactive) | > 100 µM (inactive) | > 100 µM (inactive) | > 100 µM (inactive) | > 100 µM (inactive) | > 100 µM (inactive) | > 100 µM (inactive) | > 100 µM (inactive) | > 100 µM (inactive) | > 100 µM (inactive) | > 100 µM (inactive) | > 100 µM (inactive)
Cc1ccc([N+](=O)[O-])c2c(NCCNC(=O)c3cc(C(=O)NCCNc4ccnc5c(C)ccc([N+](=O)[O-])c45)n(C)n3)ccnc12 | > 57.4 µM (inactive) | > 100 µM (inactive) | > 100 µM (inactive) | > 100 µM (inactive) | > 76.9 | > 100 µM (inactive) | 40.5 µM (inactive) | > 44.7 µM (inactive) | > 43.7 µM (inactive) | 31.7 µM (inactive) | 55.2 µM (inactive) | > 100 µM (inactive) | > 84.9 µM (inactive) | > 100 µM (inactive) | > 80.9 µM (inactive) | > 84.9 µM (inactive) | > 100 µM (inactive) | > 100 µM (inactive) | > 100 µM (inactive) | > 89.5 µM (inactive)
COc1cc(/C=C\c2nnc(/C=C\c3ccc(O)c(OC)c3)s2)ccc1O | 2.27 µM (inactive) | 1.89 µM (inactive) | 2.32 µM (inactive) | 2.36 µM (inactive) | 1.49 | 3.78 µM (inactive) | 1.77 µM (inactive) | 2.59 µM (inactive) | 0.689 µM (active) | 1.74 µM (inactive) | 2.11 µM (inactive) | 7.28 µM (inactive) | 2.45 µM (inactive) | 3.09 µM (inactive) | 1.91 µM (inactive) | 22.2 µM (inactive) | 3.94 µM (inactive) | 1.16 µM (inactive) | 3.61 µM (inactive) | 3.06 µM (inactive)
c1cnc2c(c1)ccc1cccnc12 | 12.6 µM (inactive) | 9.79 µM (inactive) | 4.13 µM (inactive) | 3.78 µM (inactive) | 3.12 | 4.26 µM (inactive) | 3.67 µM (inactive) | 3.61 µM (inactive) | 4.97 µM (inactive) | 2.86 µM (inactive) | 3.56 µM (inactive) | 2.05 µM (inactive) | 5.12 µM (inactive) | 2.74 µM (inactive) | 6.67 µM (inactive) | 5.31 µM (inactive) | > 27.1 µM (inactive) | 4.48 µM (inactive) | > 28.4 µM (inactive) | > 20.2 µM (inactive)
N/N=C(/C=C1\C(=O)Nc2ccccc21)c1ccccc1 | 28.5 µM (inactive) | 15.4 µM (inactive) | 37.2 µM (inactive) | 15.3 µM (inactive) | 8.43 | 30.4 µM (inactive) | 5.45 µM (inactive) | 22.2 µM (inactive) | 3.77 µM (inactive) | 19.7 µM (inactive) | 23.5 µM (inactive) | 45.8 µM (inactive) | 30.1 µM (inactive) | 28.6 µM (inactive) | 18.2 µM (inactive) | 50.9 µM (inactive) | 20.3 µM (inactive) | 20 µM (inactive) | 61.8 µM (inactive) | 24.4 µM (inactive)
C=CCNC1=C2C[C@@H](C)C[C@@H](OC)[C@@H](OC(=O)CCCN)[C@H](C)/C=C(\C)[C@@H](OC(N)=O)[C@H](OC)/C=C\C=C(/C)C(=O)NC(=CC1=O)C2=O | 20.5 µM (inactive) | 8.99 µM (inactive) | 13.8 µM (inactive) | 15.7 µM (inactive) | 19.4 | 13.5 µM (inactive) | 9.16 µM (inactive) | 5.45 µM (inactive) | 12.6 µM (inactive) | 14 µM (inactive) | 11.4 µM (inactive) | 17.1 µM (inactive) | 13.9 µM (inactive) | 14.9 µM (inactive) | 16.7 µM (inactive) | 16 µM (inactive) | 14 µM (inactive) | 20 µM (inactive) | 15.9 µM (inactive) | 9.44 µM (inactive)
O=C1c2ccccc2C(=O)N1NC1=NCCN1 | > 100 µM (inactive) | > 100 µM (inactive) | > 100 µM (inactive) | > 100 µM (inactive) | > 100 | > 100 µM (inactive) | > 100 µM (inactive) | > 100 µM (inactive) | > 100 µM (inactive) | > 100 µM (inactive) | > 100 µM (inactive) | > 100 µM (inactive) | > 100 µM (inactive) | > 100 µM (inactive) | > 100 µM (inactive) | > 100 µM (inactive) | > 100 µM (inactive) | > 100 µM (inactive) | > 100 µM (inactive) | > 100 µM (inactive)
CCN(CC)c1ccc2cc(C(=O)NCc3ccccc3)c(=N)oc2c1 | > 100 µM (inactive) | 23.5 µM (inactive) | 35 µM (inactive) | 39 µM (inactive) | 9.27 | 43.7 µM (inactive) | 3.86 µM (inactive) | 4.7 µM (inactive) | 70.5 µM (inactive) | 24.9 µM (inactive) | 15.2 µM (inactive) | > 89.5 µM (inactive) | 31.1 µM (inactive) | 28.2 µM (inactive) | 15.6 µM (inactive) | > 100 µM (inactive) | 19.3 µM (inactive) | 47.5 µM (inactive) | 21.4 µM (inactive) | 27.7 µM (inactive)
COc1cccc2c1C(=O)C1=C(C2=O)C(O)CC(C)(C)O1 (stereo not given) | > 100 µM (inactive) | 63.7 µM (inactive) | > 100 µM (inactive) | 24 µM (inactive) | 38.6 | 31.6 µM (inactive) | 21 µM (inactive) | 24.3 µM (inactive) | 19.5 µM (inactive) | 29 µM (inactive) | 16.6 µM (inactive) | > 100 µM (inactive) | 28.5 µM (inactive) | 42.9 µM (inactive) | 13.1 µM (inactive) | 58.9 µM (inactive) | 25.5 µM (inactive) | 71 µM (inactive) | 36.2 µM (inactive) | 32.4 µM (inactive)
